Data published in patent US20110105623A1 (Biogenic Innovations, LLC, priority 2009, published 2011).

Tests used:
[1] = test system: Streptococcus Pneumonia (#10341); experiment: Bacterial viability by bioluminescent ATP assay
[2] = test system: Streptococcus Pyogenes (Lancefield group A, #10096); experiment: Bacterial viability by bioluminescent ATP assay

Compound | IC50 [1] [%] | reduces viability by ([1]; 5% DMSO) | IC50 [2] | Viability of S. pyogenes ([2]; DMSO Concentration 0.31) [%] | Viability of S. pyogenes ([2]; DMSO Concentration 0.63) [%] | Viability of S. pyogenes ([2]; DMSO Concentration 1.25) [%] | Viability of S. pyogenes ([2]; DMSO Concentration 2.50) [%] | S. pyogenes viability ([2]; DMSO […], MSM 0%) [%] | S. pneumonia viability (%) ([1]; 25 μg/L penicillin alone) | reduced viability by ([1]; 25 μg/L penicillin alone) | S. pneumonia viability (%) ([1]; 50 μg/L Penicillin alone) | S. pneumonia viability (%) ([1]; 100 μg/L Penicillin alone) | S. pneumonia viability ([1]; Penicillin 100 μg/L, MSM 0%) [%]
C[S+](C)[O-] [DMSO, Dimethyl sulfoxide] | 12.86 | approximately 25% | 9.07% | 100 | 100 | 100 | 100 | 100 | – | – | – | – | –
Penicillin | – | – | 15.25 µg/L | – | – | – | – | – | 79.82 | approximately 21% | 42.70 | 40.93 | 40.93
